Measured values taken from article PMC10174618, “Monoterpenoid aryl hydrocarbon receptor allosteric antagonists protect against ultraviolet skin damage in female mice” (Nature Communications, 2023).

How the values were obtained:
Assay in all cases: biochemical
Set-up in all cases: KINOMEscan scanMAX active site-directed competition binding assay, percent of control, 468 kinases
Settings in all cases: competition binding, percent of control
CAMK2A = CAMK2A (Homo sapiens, UniProt Q9UQM7)
Outline: (§1)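 KINOMEscan active site-directed competition binding assay against 468 human kinases with 100 μM S-carvone. Binding expressed as % of control, with 35% of control as the inhibition threshold.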

CDK5 = CDK5 (Homo sapiens, UniProt Q00535)
Outline: as §1

PIP5K2B = target: T1, PIP5K2B (Homo sapiens, UniProt P78356)
T1 construct: gene PIP4K2B
Outline: as §1

PKAC-beta = target: T2, PKAC-beta (Homo sapiens, UniProt P22694)
T2 construct: gene PRKACB
Outline: as §1

IKK-alpha = target: T3, IKK-alpha (Homo sapiens, UniProt O15111)
T3 construct: gene CHUK
Outline: as §1

ROS1 = ROS1 (Homo sapiens, UniProt P08922)
Outline: as §1

CHEK2 = CHEK2 (Homo sapiens, UniProt O96017)
Outline: as §1

PIK3CA(H1047L) = PIK3CA(H1047L) (Homo sapiens, UniProt P42336, H1047L)
Outline: as §1

PRP4 = target: T4, PRP4 (Homo sapiens, UniProt Q13523)
T4 construct: gene PRPF4B
Outline: as §1

ACVR2B = ACVR2B (Homo sapiens, UniProt Q13705)
Outline: as §1

DRAK2 = target: T5, DRAK2 (Homo sapiens, UniProt O94768)
T5 construct: gene STK17B
Outline: as §1

SRPK1 = SRPK1 (Homo sapiens, UniProt Q96SB4)
Outline: as §1

CSK = CSK (Homo sapiens, UniProt P41240)
Outline: as §1

MAP3K3 = MAP3K3 (Homo sapiens, UniProt Q99759)
Outline: as §1

GAK = GAK (Homo sapiens, UniProt O14976)
Outline: as §1

ALK(L1196M) = ALK(L1196M) (Homo sapiens, UniProt Q9UM73, L1196M)
Outline: as §1

MAP4K5 = MAP4K5 (Homo sapiens, UniProt Q9Y4K4)
Outline: as §1

SRPK3 = SRPK3 (Homo sapiens, UniProt Q9UPE1)
Outline: as §1

PFTAIRE2 = target: T6, PFTAIRE2 (Homo sapiens, UniProt Q96Q40)
T6 construct: gene CDK15
Outline: as §1

NDR2 = target: T7, NDR2 (Homo sapiens, UniProt Q9Y2H1)
T7 construct: gene STK38L
Outline: as §1

PRKG2 = PRKG2 (Homo sapiens, UniProt Q13237)
Outline: as §1

Chain of CDK5 (Q00535 whole entry): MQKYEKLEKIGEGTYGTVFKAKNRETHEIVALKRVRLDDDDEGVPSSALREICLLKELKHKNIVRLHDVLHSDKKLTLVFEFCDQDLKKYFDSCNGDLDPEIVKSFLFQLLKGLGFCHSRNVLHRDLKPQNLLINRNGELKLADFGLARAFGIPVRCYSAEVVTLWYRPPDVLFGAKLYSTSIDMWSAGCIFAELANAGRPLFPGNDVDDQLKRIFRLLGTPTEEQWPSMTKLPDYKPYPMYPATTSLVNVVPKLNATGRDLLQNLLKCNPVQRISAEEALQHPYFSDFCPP
Chain of PIK3CA(H1047L) (P42336 whole entry H1047L): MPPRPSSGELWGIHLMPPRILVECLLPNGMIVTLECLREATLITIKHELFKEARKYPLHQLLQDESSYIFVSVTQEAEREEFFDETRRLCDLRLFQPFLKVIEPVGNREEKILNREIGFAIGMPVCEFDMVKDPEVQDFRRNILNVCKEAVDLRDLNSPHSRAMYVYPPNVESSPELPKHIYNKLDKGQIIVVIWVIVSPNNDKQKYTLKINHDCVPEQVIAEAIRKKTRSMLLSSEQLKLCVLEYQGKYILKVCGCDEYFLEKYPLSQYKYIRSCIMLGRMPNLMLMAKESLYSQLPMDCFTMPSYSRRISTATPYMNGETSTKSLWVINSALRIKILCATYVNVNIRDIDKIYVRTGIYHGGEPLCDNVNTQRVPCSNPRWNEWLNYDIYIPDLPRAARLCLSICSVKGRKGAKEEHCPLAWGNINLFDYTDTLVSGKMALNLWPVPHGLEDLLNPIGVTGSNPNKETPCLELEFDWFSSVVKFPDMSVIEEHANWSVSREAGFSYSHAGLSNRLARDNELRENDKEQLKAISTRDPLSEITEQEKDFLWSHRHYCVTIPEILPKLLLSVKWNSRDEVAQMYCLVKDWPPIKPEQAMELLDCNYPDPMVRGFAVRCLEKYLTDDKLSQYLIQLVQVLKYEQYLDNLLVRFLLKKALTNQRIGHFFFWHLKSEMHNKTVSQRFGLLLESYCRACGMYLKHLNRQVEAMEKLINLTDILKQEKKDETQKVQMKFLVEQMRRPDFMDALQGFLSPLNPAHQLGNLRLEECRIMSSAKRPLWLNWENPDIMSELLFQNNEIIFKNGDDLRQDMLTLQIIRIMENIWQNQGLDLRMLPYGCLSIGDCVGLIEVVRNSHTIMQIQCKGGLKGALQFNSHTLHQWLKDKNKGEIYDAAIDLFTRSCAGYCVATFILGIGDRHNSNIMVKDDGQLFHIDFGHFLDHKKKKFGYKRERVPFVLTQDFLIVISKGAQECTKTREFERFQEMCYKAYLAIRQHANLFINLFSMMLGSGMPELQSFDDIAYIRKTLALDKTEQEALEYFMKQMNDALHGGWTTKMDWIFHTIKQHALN
T6 sequence (Q96Q40 whole entry): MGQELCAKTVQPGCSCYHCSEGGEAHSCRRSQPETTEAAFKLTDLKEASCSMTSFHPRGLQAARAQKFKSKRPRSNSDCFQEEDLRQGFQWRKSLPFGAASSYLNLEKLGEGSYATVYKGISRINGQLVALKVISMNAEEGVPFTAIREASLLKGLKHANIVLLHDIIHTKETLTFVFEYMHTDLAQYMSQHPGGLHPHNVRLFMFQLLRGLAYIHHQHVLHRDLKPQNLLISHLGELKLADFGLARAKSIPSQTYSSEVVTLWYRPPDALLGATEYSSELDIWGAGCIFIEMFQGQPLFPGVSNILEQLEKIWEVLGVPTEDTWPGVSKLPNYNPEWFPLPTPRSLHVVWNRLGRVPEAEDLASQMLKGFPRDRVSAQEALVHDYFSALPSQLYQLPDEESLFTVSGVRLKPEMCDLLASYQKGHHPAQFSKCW
Chain of SRPK3 (Q9UPE1 whole entry): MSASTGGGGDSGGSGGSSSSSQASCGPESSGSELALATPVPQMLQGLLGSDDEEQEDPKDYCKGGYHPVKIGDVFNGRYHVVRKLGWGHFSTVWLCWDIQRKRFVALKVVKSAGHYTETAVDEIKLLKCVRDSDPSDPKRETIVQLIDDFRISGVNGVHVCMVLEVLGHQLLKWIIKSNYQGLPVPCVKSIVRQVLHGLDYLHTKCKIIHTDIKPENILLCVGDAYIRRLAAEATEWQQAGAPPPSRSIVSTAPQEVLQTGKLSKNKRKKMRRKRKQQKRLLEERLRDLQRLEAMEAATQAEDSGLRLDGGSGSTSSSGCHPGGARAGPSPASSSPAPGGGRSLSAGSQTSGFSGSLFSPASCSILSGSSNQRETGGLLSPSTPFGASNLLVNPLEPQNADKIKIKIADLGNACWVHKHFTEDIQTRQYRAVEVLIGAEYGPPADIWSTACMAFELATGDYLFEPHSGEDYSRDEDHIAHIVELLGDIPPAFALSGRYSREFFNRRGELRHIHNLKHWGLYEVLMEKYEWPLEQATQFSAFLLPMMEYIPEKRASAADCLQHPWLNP
T4 sequence (Q13523 whole entry): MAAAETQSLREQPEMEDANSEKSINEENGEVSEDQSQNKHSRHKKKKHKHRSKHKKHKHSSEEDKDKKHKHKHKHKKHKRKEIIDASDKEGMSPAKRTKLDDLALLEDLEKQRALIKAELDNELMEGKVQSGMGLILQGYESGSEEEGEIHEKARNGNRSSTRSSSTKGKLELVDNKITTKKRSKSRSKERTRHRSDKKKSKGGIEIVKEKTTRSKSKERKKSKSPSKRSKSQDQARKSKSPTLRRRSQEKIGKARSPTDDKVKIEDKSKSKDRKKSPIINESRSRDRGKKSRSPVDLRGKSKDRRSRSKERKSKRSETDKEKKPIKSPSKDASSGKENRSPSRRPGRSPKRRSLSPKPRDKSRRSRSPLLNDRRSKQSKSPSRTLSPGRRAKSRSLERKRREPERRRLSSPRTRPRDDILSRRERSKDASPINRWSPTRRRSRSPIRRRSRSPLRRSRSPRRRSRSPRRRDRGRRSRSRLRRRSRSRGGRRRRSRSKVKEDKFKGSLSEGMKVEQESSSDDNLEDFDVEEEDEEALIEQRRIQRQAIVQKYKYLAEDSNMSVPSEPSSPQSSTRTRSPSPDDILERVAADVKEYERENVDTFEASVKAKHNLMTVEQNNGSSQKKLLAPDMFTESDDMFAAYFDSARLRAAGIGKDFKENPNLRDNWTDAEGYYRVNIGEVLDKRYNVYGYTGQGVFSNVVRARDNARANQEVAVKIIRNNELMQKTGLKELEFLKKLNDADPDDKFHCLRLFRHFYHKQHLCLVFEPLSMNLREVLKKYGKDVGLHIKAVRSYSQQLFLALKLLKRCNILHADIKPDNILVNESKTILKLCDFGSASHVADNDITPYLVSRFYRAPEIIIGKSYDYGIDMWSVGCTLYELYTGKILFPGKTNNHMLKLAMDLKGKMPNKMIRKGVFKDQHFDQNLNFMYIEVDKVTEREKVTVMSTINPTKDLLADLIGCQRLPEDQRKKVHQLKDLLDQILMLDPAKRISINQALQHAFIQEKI
Chain of PRKG2 (Q13237 whole entry): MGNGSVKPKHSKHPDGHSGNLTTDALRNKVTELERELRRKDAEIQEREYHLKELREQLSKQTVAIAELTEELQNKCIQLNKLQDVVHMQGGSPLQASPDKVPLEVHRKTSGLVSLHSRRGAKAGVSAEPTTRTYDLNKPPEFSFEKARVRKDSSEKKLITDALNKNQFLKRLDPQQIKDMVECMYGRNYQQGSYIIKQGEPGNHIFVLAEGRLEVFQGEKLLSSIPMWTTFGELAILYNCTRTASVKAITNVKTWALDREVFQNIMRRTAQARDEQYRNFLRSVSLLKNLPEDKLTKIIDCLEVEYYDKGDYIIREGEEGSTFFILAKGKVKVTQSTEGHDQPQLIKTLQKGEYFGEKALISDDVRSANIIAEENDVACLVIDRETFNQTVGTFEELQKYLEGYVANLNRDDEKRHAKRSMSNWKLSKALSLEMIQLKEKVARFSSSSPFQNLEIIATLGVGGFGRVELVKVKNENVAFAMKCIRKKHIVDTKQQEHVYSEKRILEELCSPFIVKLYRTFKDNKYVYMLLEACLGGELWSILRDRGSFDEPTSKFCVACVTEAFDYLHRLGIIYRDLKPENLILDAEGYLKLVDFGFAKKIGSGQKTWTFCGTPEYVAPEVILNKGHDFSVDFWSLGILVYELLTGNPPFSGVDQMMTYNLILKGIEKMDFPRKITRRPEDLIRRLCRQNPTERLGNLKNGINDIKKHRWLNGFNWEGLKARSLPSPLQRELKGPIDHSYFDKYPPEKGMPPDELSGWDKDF
T5 sequence (O94768 whole entry): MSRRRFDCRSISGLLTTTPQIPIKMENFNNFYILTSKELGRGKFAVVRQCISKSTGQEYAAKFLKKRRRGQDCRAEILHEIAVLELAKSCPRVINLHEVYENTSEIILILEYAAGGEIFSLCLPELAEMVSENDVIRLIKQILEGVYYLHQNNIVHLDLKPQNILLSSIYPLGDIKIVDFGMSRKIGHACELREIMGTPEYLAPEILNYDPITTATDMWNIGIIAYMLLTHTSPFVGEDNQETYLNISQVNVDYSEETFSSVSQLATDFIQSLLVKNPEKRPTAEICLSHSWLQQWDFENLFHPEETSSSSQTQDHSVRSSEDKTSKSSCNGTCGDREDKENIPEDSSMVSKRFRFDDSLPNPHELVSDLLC
T1 sequence (P78356 whole entry): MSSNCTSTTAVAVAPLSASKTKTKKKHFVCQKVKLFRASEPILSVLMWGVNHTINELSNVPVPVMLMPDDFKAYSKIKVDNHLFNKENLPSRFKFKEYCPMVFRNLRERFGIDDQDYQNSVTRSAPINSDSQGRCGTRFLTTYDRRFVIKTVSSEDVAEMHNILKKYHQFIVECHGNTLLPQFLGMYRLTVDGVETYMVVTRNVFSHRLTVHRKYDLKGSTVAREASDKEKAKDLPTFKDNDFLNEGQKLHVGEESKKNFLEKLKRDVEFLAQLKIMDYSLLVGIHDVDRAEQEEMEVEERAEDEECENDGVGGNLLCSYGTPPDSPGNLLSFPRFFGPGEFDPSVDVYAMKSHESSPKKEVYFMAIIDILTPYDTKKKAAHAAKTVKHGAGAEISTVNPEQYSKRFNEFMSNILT

## C=C(C)[C@H]1CC=C(C)C(=O)C1 [S-carvone]
CAMK2A
  remaining binding at 100 µM: 79%
CDK5
  remaining binding at 100 µM: 61%
PIP5K2B
  remaining binding at 100 µM: 100%
PKAC-beta
  remaining binding at 100 µM: 84%
IKK-alpha
  remaining binding at 100 µM: 72%
ROS1
  remaining binding at 100 µM: 83%
CHEK2
  remaining binding at 100 µM: 99%
PIK3CA(H1047L)
  remaining binding at 100 µM: 74%
PRP4
  remaining binding at 100 µM: 62%
ACVR2B
  remaining binding at 100 µM: 75%
DRAK2
  remaining binding at 100 µM: 98%
SRPK1
  remaining binding at 100 µM: 77%
CSK
  remaining binding at 100 µM: 88%
MAP3K3
  remaining binding at 100 µM: 54%
GAK
  remaining binding at 100 µM: 83%
ALK(L1196M)
  remaining binding at 100 µM: 71%
MAP4K5
  remaining binding at 100 µM: 85%
SRPK3
  remaining binding at 100 µM: 61%
PFTAIRE2
  remaining binding at 100 µM: 87%
NDR2
  remaining binding at 100 µM: 83%
PRKG2
  remaining binding at 100 µM: 76%
